Data on 22 compounds can be found in US20190127366A1 (LifeSci Pharmaceuticals, Inc., priority 2015, published 2019).

For the experiment, the target named is T1, human complement factor D (Homo sapiens, UniProt P00746).
T1 construct: purchased R&D Systems 1824-SE
T1 sequence (P00746 26-253): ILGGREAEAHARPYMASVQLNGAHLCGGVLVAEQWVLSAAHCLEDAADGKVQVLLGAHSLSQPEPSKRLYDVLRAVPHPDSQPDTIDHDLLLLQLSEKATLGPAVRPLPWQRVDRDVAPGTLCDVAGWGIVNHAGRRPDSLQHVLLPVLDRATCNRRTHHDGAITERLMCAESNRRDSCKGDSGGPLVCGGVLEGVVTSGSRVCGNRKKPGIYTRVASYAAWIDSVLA
Put plainly: In vitro enzyme inhibition (Z-Lys-SBzl/DTNB absorbance assay). The following applies: Complement Factor D (R&D Systems), substrate Z-Lys-SBzl, A405 nm; read-out: CFD IC50. Type of experiment: biochemical. Here is the method: The ability of the compounds disclosed herein to inhibit human complement factor D inhibitory activity was quantified according to the 12-step protocol provided below. • 1. Prepare assay buffer: 50 mM Tris/HCl, pH 7.5, 1 M NaCl. • 2. Dilute 10 mM Complement Factor D inhibitor Nafamostat Mesilate (Selleckchem, Catalog #S1386) solution from 10000 μM to 9.77 μM in 100% DMSO, 8 concentrations. Then dilute the serial concentrations of Nafamostat Mesilate 20-fold in assay buffer. • 3. Add 10 μl diluted Nafamostat Mesilate duplicated into each of the inhibitor control well of a 96-well plate (Corning, Catalog #3599). Final concentrations were 50 μM, 25 μM, 12.5 μM, 6.25 μM, 3.125 μM, 0.781 μM, 0.195 μM and 0.049 μM. 0.5% DMSO was in each well finally. • 4. Dilute 20 mM test compounds from 10000 μM to […] in 100% DMSO, 6-fold dilution, 8 concentrations. Then dilute the serial concentrations of test compounds 20-fold in assay buffer. • 5. Add 10 μl diluted test compounds duplicated into the 96-well plate. Final concentrations were 50 μM, 8.33 μM, 1.39 μM, 0.23 μM, 0.0386 μM, 0.0064 μM, 0.0011 μM and 0.0002 μM. 0.5% DMSO was in each well finally. • 6. Dilute 20 mM substrate Z-Lys-SBzl (Bachem, Cat #M-1300) to 200 μM in assay buffer with 200 μM DTNB(Sigma, Catalog #D8130). • 7. Dilute 738 ng/μL Complement Factor D (R&D Systems, Catalog #1824-SE) to 6.25 ng/μL in assay buffer. Add 40 μl diluted Complement Factor D in the 96-well plate. • 8. Positive control well contains Complement Factor D without test compound. Negative control well contains neither Complement Factor D nor test compound. Using assay buffer, bring the total volume of all controls to 50 μl. • 9. Pre-incubate the plate for 5 min at room temperature. • 10. Add 50 μl of diluted substrate/DTNB mixture into each well. Mix the reagents completely by shaking the plate gently for 30 sec. • 11. For kinetic reading: Immediately start measuring absorbance (A405 nm) continuously and record data every 30sec for 60 min. • 12. Data analysis • Inhibition activity of compound was evaluated by IC50. IC50 was calculated according the dose-response curve of compound fitted using GraphPadPrism with “log(inhibitor)-response (variable slope)” equation. • % inhibition was calculated by using following equation:
[formula] • Mean(NC): The average value of the negative control wells' A405 nm values. • Mean(PC): The average value of the positive control wells' A405 nm values.
The ability of the compounds in Table 2 to inhibit human complement factor D inhibitory activity was determined.
Turning to `COC(=O)C(NC(=O)[C@@H]1[C@H]2CC[C@H](C2)N1C(=O)Cn1nc(C(N)=O)c2ccccc21)c1cccc(Cl)c1F` (stereo partly drawn) [Example 136, methyl 2-((1R,3S,4S)-2-(2-(3-carbamoyl-1H-indazol-1-yl)acetyl)-2-azabicyclo[2.2.1]heptane-3-carboxamido)-2-(3-chloro-2-fluorophenyl)acetate], the IC50 (commonly the concentration at which inhibition is half-maximal) was 1000 to 10000 nM. Take `NC(=O)c1nn(CC(=O)N2CCNCCC2C(=O)NCc2cccc(Cl)c2F)c2ccccc12` (stereo not shown) [Example 35, 1-(2-(7-((3-chloro-2-fluorobenzyl)carbamoyl)-1,4-diazepan-1-yl)-2-oxoethyl)-1H-indazole-3-carboxamide 2,2,2-trifluoroacetate]: the IC50 is 1000 to 10000 nM. In the case of `NC(=O)c1nn(CC(=O)N2[C@H](C(=O)NCc3cccc(Cl)c3F)C[C@@H]3CCC[C@@H]32)c2ccc(C3CC3)cc12` [Example 199, 1-(2-((2S,3aS,6aS)-2-((3-chloro-2-fluorobenzyl)carbamoyl)hexahydrocyclopenta[b]pyrrol-1(2H)-yl)-2-oxoethyl)-5-cyclopropyl-1H-indazole-3-carboxamide] it was 100 to 1000 nM; in that of `NC(=O)c1nn(CC(=O)N2CCCCC[C@H]2C(=O)NCc2cccc(Cl)c2F)c2ccccc12` [Example 31, (S)-1-(2-(2-((3-chloro-2-fluorobenzyl)carbamoyl)azepan-1-yl)-2-oxoethyl)-1H-indazole-3-carboxamide], 100 to 1000 nM; in that of `N#Cc1ccc2c(c1)c(C(N)=O)nn2CC(=O)N1[C@H](C(=O)Nc2cccc(Cl)n2)C[C@@H]2CCC[C@@H]21` [Example 174, 1-(2-((2S,3aS,6aS)-2-((6-chloropyridin-2-yl)carbamoyl)hexahydrocyclopenta[b]pyrrol-1(2H)-yl)-2-oxoethyl)-5-cyano-1H-indazole-3-carboxamide], 100 to 1000 nM.

Turning to `N#CC(NC(=O)[C@@H]1[C@H]2CC[C@H](C2)N1C(=O)Cn1nc(C(N)=O)c2ccccc21)c1cccc(Cl)c1F` (stereo partly drawn) [Example 141, 1-(2-((1R,3S,4S)-3-(((3-chloro-2-fluorophenyl)(cyano)methyl)carbamoyl)-2-azabicyclo[2.2.1]heptan-2-yl)-2-oxoethyl)-1H-indazole-3-carboxamide], the IC50 lay within 100 to 1000 nM.

As to `NC(=O)c1nn(CC(=O)N2[C@@H]3CC[C@@H](C3)[C@H]2C(=O)NCc2c(CO)ccc(Cl)c2F)c2ccccc12` [Example 120, 1-(2-((1R,3S,4S)-3-((3-chloro-2-fluoro-6-(hydroxymethyl)benzyl)carbamoyl)-2-azabicyclo[2.2.1]heptan-2-yl)-2-oxoethyl)-1H-indazole-3-carboxamide], the IC50 was 1000 to 10000 nM. In the case of `NC(=O)c1nn(CC(=O)N2[C@H]3CC[C@H](C3)[C@H]2C(=O)Nc2cccc(Cl)n2)c2ccc(Cl)cc12` [Example 16, 5-chloro-1-(2-((1S,3S,4R)-3-((6-chloropyridin-2-yl)carbamoyl)-2-azabicyclo[2.2.1]heptan-2-yl)-2-oxoethyl)-1H-indazole-3-carboxamide] it was 1000 to 10000 nM; in that of `NC(=O)c1nn(CC(=O)N2[C@H](C(=O)Nc3cccc(Cl)n3)C[C@@H]3CCC[C@@H]32)c2cnccc12` [Example 177, 1-(2-((2S,3aS,6aS)-2-((6-chloropyridin-2-yl)carbamoyl)hexahydrocyclopenta[b]pyrrol-1(2H)-yl)-2-oxoethyl)-1H-pyrazolo[3,4-c]pyridine-3-carboxamide], 100 to 1000 nM; in that of `NC(=O)c1nn(CC(=O)N2C3CCC(C3)[C@H]2C(=O)Nc2cccc(C(F)(F)F)n2)c2ccc(C3CC3)cc12` (stereo partly drawn) [Example 14, 5-cyclopropyl-1-(2-oxo-2-((3S)-3-((6-(trifluoromethyl)pyridin-2-yl)carbamoyl)-2-azabicyclo[2.2.1]heptan-2-yl)ethyl)-1H-indazole-3-carboxamide], 1000 to 10000 nM. As to `NC(=O)c1nn(CC(=O)N2[C@@H]3CC[C@@H](C3)[C@H]2C(=O)Nc2cccc(C3CC3)n2)c2cc(C3CC3)ccc12` [Example 5, 6-cyclopropyl-1-(2-((1R,3S,4S)-3-((6-cyclopropylpyridin-2-yl)carbamoyl)-2-azabicyclo[2.2.1]heptan-2-yl)-2-oxoethyl)-1H-indazole-3-carboxamide], the IC50 fell in the range of 1000 to 10000 nM. `NC(=O)c1nn(CC(=O)N2CCCC[C@H]2C(=O)Nc2cccc(Br)n2)c2ccccc12` [Example 20, (S)-1-(2-(2-((6-bromopyridin-2-yl)carbamoyl)piperidin-1-yl)-2-oxoethyl)-1H-indazole-3-carboxamide]: the IC50 fell in the range of 100 to 1000 nM. For `NC(=O)c1nn(CC(=O)N2CCCCC[C@H]2C(=O)Nc2cccc(Cl)c2F)c2ccccc12` [Example 32, (S)-1-(2-(2-((3-chloro-2-fluorophenyl)carbamoyl)azepan-1-yl)-2-oxoethyl)-1H-indazole-3-carboxamide], the IC50 was 1000 to 10000 nM.

As to `NC(=O)c1nc(CC(=O)N2CC[C@H]2C(=O)NCc2cccc(Cl)c2F)n2ccccc12` [Example 191, (S)-3-(2-(2-((3-chloro-2-fluorobenzyl)carbamoyl)azetidin-1-yl)-2-oxoethyl)imidazo[1,5-a]pyridine-1-carboxamide], the IC50 was 100 to 1000 nM. Turning to `NC(=O)c1nn(CC(=O)N2[C@@H]3CC[C@@H](C3)[C@H]2C(=O)Nc2cccc(C3CC3)n2)c2ccccc12` [Example 3, 1-(2-((1R,3S,4S)-3-((6-cyclopropylpyridin-2-yl)carbamoyl)-2-azabicyclo[2.2.1]heptan-2-yl)-2-oxoethyl)-1H-indazole-3-carboxamide], the IC50 lay within 1000 to 10000 nM. Consider `CC(O)c1nn(CC(=O)N2[C@H](C(=O)Nc3cccc(Cl)n3)C[C@@H]3CCC[C@@H]32)c2ccccc12` (stereo partly drawn) [Example 181, (2S,3aS,6aS)-N-(6-chloropyridin-2-yl)-1-(2-(3-(1-hydroxyethyl)-1H-indazol-1-yl)acetyl)octahydrocyclopenta[b]pyrrole-2-carboxamide], for which the IC50 lay within 1000 to 10000 nM. As for `NC(=O)Cc1ccc2c(c1)c(C(N)=O)nn2CC(=O)N1[C@@H]2CC[C@@H](C2)[C@H]1C(=O)NCc1cccc(Cl)c1F` [Example 133, 5-(2-amino-2-oxoethyl)-1-(2-((1R,3S,4S)-3-((3-chloro-2-fluorobenzyl)carbamoyl)-2-azabicyclo[2.2.1]heptan-2-yl)-2-oxoethyl)-1H-indazole-3-carboxamide], the IC50 was 1000 to 10000 nM. On to `NCCC(NC(=O)[C@@H]1[C@H]2CC[C@H](C2)N1C(=O)Cn1nc(C(N)=O)c2ccccc21)c1cccc(Cl)c1F` (stereo partly drawn) [Example 145, 1-(2-((1R,3S,4S)-3-((3-amino-1-(3-chloro-2-fluorophenyl)propyl)carbamoyl)-2-azabicyclo[2.2.1]heptan-2-yl)-2-oxoethyl)-1H-indazole-3-carboxamide], for which the IC50 lay within 1000 to 10000 nM. With `NC(=O)n1cc(CC(=O)N2CC[C@H]2C(=O)NCc2cccc(Cl)c2F)c2ccccc21` [Example 186, (S)-3-(2-(2-((3-chloro-2-fluorobenzyl)carbamoyl)azetidin-1-yl)-2-oxoethyl)-1H-indole-1-carboxamide] the figure was 100 to 1000 nM. For `CC(=O)c1nn(CC(=O)N2[C@H](C(=O)Nc3cccc(Cl)n3)C[C@@H]3CCC[C@@H]32)c2ccccc12` [Example 180, (2S,3aS,6aS)-1-(2-(3-acetyl-1H-indazol-1-yl)acetyl)-N-(6-chloropyridin-2-yl)octahydrocyclopenta[b]pyrrole-2-carboxamide], the IC50 lay in the range of 100 to 1000 nM. As to `Cc1ccc2c(c1)c(C(N)=O)nn2CC(=O)N1[C@@H]2CC[C@@H](C2)[C@H]1C(=O)Nc1cccc(Cl)n1` [Example 61, 1-(2-((1R,3S,4S)-3-((6-chloropyridin-2-yl)carbamoyl)-2-azabicyclo[2.2.1]heptan-2-yl)-2-oxoethyl)-5-methyl-1H-indazole-3-carboxamide], the IC50 lay within 100 to 1000 nM. `CC(=O)c1nn(CC(=O)N2[C@@H]3CC[C@@H](C3)[C@H]2C(=O)Nc2cccc(Cl)n2)c2ccc(C#N)cc12` [Example 92, (1R,3S,4S)-2-(2-(3-acetyl-5-cyano-1H-indazol-1-yl)acetyl)-N-(6-chloropyridin-2-yl)-2-azabicyclo[2.2.1]heptane-3-carboxamide]: the IC50 fell in the range of 100 to 1000 nM.
